From patent publication US20220143081A1, “SYSTEM AND METHOD OF TREATING INFLAMMATORY LUNG DISEASES” (priority 2020, published 2022) come the findings set out here.

The subject of assay [1] is SARS-CoV-2. In kind it is cell-based.
In assay [2] the test system is SARS-CoV-2. In kind it is cell-based. The conditions noted are these: commercially available nasal spray tested at 5-fold dilution.
The test system of assay [3] is monocytes, macrophages and lymphocytes. Description: In vitro experiments in monocytes, macrophages and lymphocytes. In kind it is cell-based.
The test system of the next assay is HIV. In kind it is cell-based. The conditions noted are these: in vitro.
A short description of assay [4]: Human wound healing model (skin blister). In kind it is in vivo.
The nature of assay [5]: Blood cell effects in rats, including total body X-irradiation. In kind it is in vivo.
The test system of assay [6] is radiation-induced, chemical-induced and metastatic malignant and benign tumors. Description: Antitumor effects against induced and metastatic tumors. In kind it is in vivo.
Assay [7] is described as follows: Humoral and cellular immunity (Jerne plaque and footpad swelling tests). In kind it is in vivo.
In assay [8] the test system is PBMCs isolated from normal donors. The experiment in a line: Gene expression in PBMCs by quantitative RT-PCR (Light Cycler System). In kind it is cell-based, human.

Turning to tetrachlorodecaoxide [TCDO], the “cytopathic effect and SARS-CoV-2 infection of Vero E6 cells” value with SARS-CoV-2 [1] is reported as “significantly reduced”. In addition, the “inhibition of viral propagation” value with SARS-CoV-2 [2] was “highly potent”. For the same substance, in assay [3], the antigen presentation entry is given as “decrease antigen presentation”, the “macrophage tumor necrosis factor (TNF) expression” value is on record as “decrease macrophage tumor necrosis factor (TNF) expression”, the macrophage-fibroblast cooperation entry was “enhance macrophage-fibroblast cooperation” and the “oxidative burst in monocytes” value is recorded as “stimulate an oxidative burst in monocytes”. The phagocytosis result in assay [3] is recorded as “increase phagocytosis”. Moreover, the anti-HIV properties result in the assay with HIV is on record as “displayed anti-HIV properties”. Besides, the “number of macrophages infiltrating the skin blister” value in assay [4] is on record as “increased the number of macrophages infiltrating the skin blister”. For the same substance, the “proportion of granulocytes, PBMCs and LGLs” value in assay [5] is “increased the proportion of granulocytes, peripheral blood monocytes (PBMCs) and large granular lymphocytes (LGLs)”. In assay [5] (after total body X-irradiation), the erythropoiesis entry is “stimulated erythropoiesis”. For the same substance, in assay [6], the direct antitumor effects result was “displayed direct antitumor effects”. In [7] (Jerne plaque and footpad swelling tests), the “humoral and cellular immune responses” value is “increased both the humoral and cellular immune responses”. The “proportions of T-helper and T-suppressor/cytotoxic cells” value in assay [7] (spleen and thymus) was “altered proportions of T-helper and T-suppressor/cytotoxic cells”. In assay [8], the “CD14 cell (macrophage) inflammatory gene expression” value is reported as “short-term upregulation” and the “inducible gene expression related to macrophage dependent T-cell activation (IL-2, IL-4, IL-17)” value is recorded as “notable inhibition”.
